Square brackets hold non-standard residues; d marks the D form. Peptide text beside a SMILES is read from it. * marks the point of attachment. Propanoyl(3-indol-3-yl) = O=C(CCc1c[nH]c2ccccc12)*; Acetyl(1-adamantyl) = O=C(CC12CC3CC(CC(C3)C1)C2)*; Propanoyl(3-(4-F-phenyl)) = O=C(CCc1ccc(F)cc1)*; Propanoyl(3-(4-MeO-Ph)) = COc1ccc(CCC(=O)*)cc1; Propanoyl(3-(4-Cl-Ph)) = O=C(CCc1ccc(Cl)cc1)*; X7 = CC1(C)CN(CC(=O)*)C(=O)C(c2ccccc2)=N1; Phenylacetyl(4-Cl) = O=C(Cc1ccc(Cl)cc1)*; Phenylacetyl(4-F) = O=C(Cc1ccc(F)cc1)*; 2Nal = N[C@@H](Cc1ccc2ccccc2c1)C(=O)O; Desaminohistidyl = O=C(CCc1c[nH]cn1)*; Desaminotyrosyl = O=C(CCc1ccc(O)cc1)*; Cyclopentanecarbonyl = O=C(C1CCCC1)*; NMeY = CN[C@@H](Cc1ccc(O)cc1)C(=O)O; Hydrocinnamoyl = O=C(CCc1ccccc1)*; X13 = O=C(CCc1ccc(C(F)(F)F)cc1)*; d2Thi = N[C@H](Cc1cccs1)C(=O)O; X15 = O=C(Cc1ccc(O)cc1)*; PhAc = O=C(Cc1ccccc1)*; X6 = O=C(CCc1ccccc1F)*
These compounds were tested against T1, LHRH receptors (Rattus norvegicus, UniProt P30969) (assay: Receptor Binding (radioligand receptor binding assay)). Conditions: table 3; rat pituitary membranes, radioiodinated [D-Leu^6 -des Gly^10 ]-LHRH ethyl amide 50 pM, 2 hours at 4° C.; read-out: Receptor Binding pkI (converted).
T1 construct: Pituitary membranes containing LHRH receptors are prepared in batches from quick-frozen rat pituitaries; tissue Hilltop Labs; host or cells: rat pituitary membranes
T1 sequence (P30969 1-327): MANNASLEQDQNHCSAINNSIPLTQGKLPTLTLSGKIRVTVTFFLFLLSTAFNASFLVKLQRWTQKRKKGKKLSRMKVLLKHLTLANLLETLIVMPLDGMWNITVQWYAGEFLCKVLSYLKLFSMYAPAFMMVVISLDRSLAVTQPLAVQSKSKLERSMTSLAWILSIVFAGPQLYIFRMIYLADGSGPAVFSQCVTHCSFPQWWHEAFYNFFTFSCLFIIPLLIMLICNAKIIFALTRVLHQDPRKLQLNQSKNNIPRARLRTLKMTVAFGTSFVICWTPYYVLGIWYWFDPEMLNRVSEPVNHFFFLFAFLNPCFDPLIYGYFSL

| SMILES | Ki |
| --- | --- |
| CCNC(=O)[C@@H]1CCCN1C(=O)[C@H](CCCNC(=N)N)NC(=O)[C@H](CC(C)C)NC(=O)[C@@H](Cc1c[nH]c2ccccc12)NC(=O)[C@H](Cc1ccc(O)cc1)NC(=O)[C@H](CO)NC(=O)[C@H](Cc1c[nH]c2ccccc12)NC(=O)CCc1ccccc1 [Compound 65, (3-9)[N-(3-Phenylpropionyl)-Trp^3 -D-Trp^6 -Pro^9 -NHEt]LHRH] (Hydrocinnamoyl-WSY[dW]LRP-NHEt) | 0.269 nM |
| CCNC(=O)[C@@H]1CCCN1C(=O)[C@H](CCCNC(=N)N)NC(=O)[C@H](CC(C)C)NC(=O)[C@@H](CC(C)C)NC(=O)[C@H](Cc1ccc(O)cc1)NC(=O)[C@H](CO)NC(=O)[C@H](Cc1c[nH]c2ccccc12)NC(=O)CCc1ccccc1 [Compound 66, (3-9)[N-(3-Phenylpropionyl)-Trp^3 -D-Leu^6 -Pro^9 -NHEt]LHRH] (Hydrocinnamoyl-WSY[dL]LRP-NHEt) | 1.78 nM |
| CCNC(=O)[C@@H]1CCCN1C(=O)[C@H](CCCNC(=N)N)NC(=O)[C@H](CC(C)C)NC(=O)[C@@H](CC(C)C)NC(=O)[C@H](Cc1ccc(O)cc1)NC(=O)[C@H](CO)NC(=O)[C@H](Cc1c[nH]c2ccccc12)NC(=O)Cc1ccccc1 [Compound 68, (3-9)[N-(Phenylacetyl)-Trp^3 -D-Leu^6 -Pro^9 -NHEt]LHRH] (PhAc-WSY[dL]LRP-NHEt) | 21.9 nM |
| CCNC(=O)[C@@H]1CCCN1C(=O)[C@H](CCCNC(=N)N)NC(=O)[C@H](CC(C)C)NC(=O)[C@@H](Cc1c[nH]c2ccccc12)NC(=O)[C@H](Cc1ccc(O)cc1)NC(=O)[C@H](CO)NC(=O)[C@H](Cc1c[nH]c2ccccc12)NC(=O)[C@H](Cc1c[nH]cn1)NC(=O)CCc1cnc[nH]1 [Compound 69, N-(3-(5-Imidazolyl)propionyl)-His-Trp-Ser-Tyr-D-Trp-Leu-Arg-Pro-NHEt] (Desaminohistidyl-HWSY[dW]LRP-NHEt) | 1.05 nM |
| CCNC(=O)[C@@H]1CCCN1C(=O)[C@H](CCCNC(=N)N)NC(=O)[C@H](CC(C)C)NC(=O)[C@@H](CCCNC(=N)N)NC(=O)[C@H](Cc1ccc(O)cc1)NC(=O)[C@H](CO)NC(=O)[C@H](Cc1c[nH]c2ccccc12)NC(=O)[C@H](Cc1ccccc1)NC(=O)C1CCCC1 [Compound 70, N-(Cyclopentylcarbonyl)-Phe-Trp-Ser-Tyr-D-Arg-Leu-Arg-Pro-NHEt] (Cyclopentanecarbonyl-FWSY[dR]LRP-NHEt) | 0.145 nM |
| CCNC(=O)[C@@H]1CCCN1C(=O)[C@H](CCCNC(=N)N)NC(=O)[C@H](CC(C)C)NC(=O)[C@@H](Cc1c[nH]c2ccccc12)NC(=O)[C@H](CCCCN)NC(=O)[C@H](CO)NC(=O)[C@H](Cc1c[nH]c2ccccc12)NC(=O)[C@H](Cc1c[nH]cn1)NC(=O)CN1CC(C)(C)N=C(c2ccccc2)C1=O [Compound 71, N-(5,6-Dihydro-5,5-dimethyl-2-oxo-3-phenyl-1-(2H)-pyrazineacetyl)-His-Trp-Ser-Lys-D-Trp-Leu-Arg-ProNHEt] (X7-HWSK[dW]LRP-NHEt) | 3.16 nM |
| CCNC(=O)[C@@H]1CCCN1C(=O)[C@H](CCCNC(=N)N)NC(=O)[C@H](CC(C)C)NC(=O)[C@@H](Cc1c[nH]c2ccccc12)NC(=O)[C@H](Cc1ccc(O)cc1)NC(=O)[C@H](CO)NC(=O)[C@H](Cc1c[nH]c2ccccc12)NC(=O)[C@H](Cc1ccccc1)NC(C)=O [Compound 72, N-Acetyl-Phe-Trp-Ser-Tyr-D-Trp-Leu-Arg-ProNHEt] (Ac-FWSY[dW]LRP-NHEt) | 0.166 nM |
| CCNC(=O)[C@@H]1CCCN1C(=O)[C@H](CCCNC(=N)N)NC(=O)[C@H](CC(C)C)NC(=O)[C@@H](Cc1c[nH]c2ccccc12)NC(=O)[C@H](Cc1ccc(O)cc1)NC(=O)[C@H](CO)NC(=O)Cc1ccc(O)cc1 [Compound 73, (4-9)[N-(3-(4-Hydroxyphenyl)acetyl) -Ser^4 -D-Trp^6 -Pro^9 NHEt]LHRH] (X15-SY[dW]LRP-NHEt) | 70.8 nM |
| CCNC(=O)[C@@H]1CCCN1C(=O)[C@H](CCCNC(=N)N)NC(=O)[C@H](CC(C)C)NC(=O)[C@@H](Cc1c[nH]c2ccccc12)NC(=O)[C@H](Cc1ccc(O)cc1)NC(=O)[C@H](CO)NC(=O)Cc1ccc(F)cc1 [Compound 74, (4-9)[N-(3-(4-Fluorophenyl)acetyl) -Ser^4 -D-Trp^6 -Pro^9 NHEt]LHRH] ({Phenylacetyl(4-F)}-SY[dW]LRP-NHEt) | 26.3 nM |
| CCNC(=O)[C@@H]1CCCN1C(=O)[C@H](CCCNC(=N)N)NC(=O)[C@H](CC(C)C)NC(=O)[C@@H](Cc1c[nH]c2ccccc12)NC(=O)[C@H](Cc1ccc(O)cc1)NC(=O)[C@H](CO)NC(=O)Cc1ccc(Cl)cc1 [Compound 75, (4-9)[N-(3-(4-Chlorophenyl)acetyl) -Ser^4 -D-Trp^6 -Pro^9 NHEt]LHRH] ({Phenylacetyl(4-Cl)}-SY[dW]LRP-NHEt) | 7.08 nM |
| CCNC(=O)[C@@H]1CCCN1C(=O)[C@H](CCCNC(=N)N)NC(=O)[C@H](CC(C)C)NC(=O)[C@@H](Cc1c[nH]c2ccccc12)NC(=O)[C@H](Cc1ccc(O)cc1)NC(=O)[C@H](CO)NC(=O)CCc1ccc(O)cc1 [Compound 76, (4-9)[N-(3-(4-Hydroxyphenyl)propionyl) -Ser^4 -D-Trp^6 -Pro^9 NHEt]LHRH] (Desaminotyrosyl-SY[dW]LRP-NHEt) | 43.7 nM |
| CCNC(=O)[C@@H]1CCCN1C(=O)[C@H](CCCNC(=N)N)NC(=O)[C@H](CC(C)C)NC(=O)[C@@H](Cc1c[nH]c2ccccc12)NC(=O)[C@H](Cc1ccc(O)cc1)NC(=O)[C@H](CO)NC(=O)CCc1ccc(F)cc1 [Compound 77, (4-9)[N-(3-(4-Fluorophenyl)propionyl) -Ser^4 -D-Trp^6 -Pro^9 NHEt]LHRH] ({Propanoyl(3-(4-F-phenyl))}-SY[dW]LRP-NHEt) | 3.98 nM |
| CCNC(=O)[C@@H]1CCCN1C(=O)[C@H](CCCNC(=N)N)NC(=O)[C@H](CC(C)C)NC(=O)[C@@H](Cc1c[nH]c2ccccc12)NC(=O)[C@H](Cc1ccc(O)cc1)NC(=O)[C@H](CO)NC(=O)CCc1ccc(OC)cc1 [Compound 78, (4-9)[N-(3-(4-Methoxyphenyl)propionyl) -Ser^4 -D-Trp^6 -Pro^9 NHEt]LHRH] ({Propanoyl(3-(4-MeO-Ph))}-SY[dW]LRP-NHEt) | 10.7 nM |
| CCNC(=O)[C@@H]1CCCN1C(=O)[C@H](CCCNC(=N)N)NC(=O)[C@H](CC(C)C)NC(=O)[C@@H](Cc1c[nH]c2ccccc12)NC(=O)[C@H](Cc1ccc(O)cc1)NC(=O)[C@H](CO)NC(=O)CCc1ccc(C(F)(F)F)cc1 [Compound 79, (4-9)[N-(3-(4-Trifluoromethylphenyl)propionyl)-Ser^4 -D-Trp^6 -Pro^9 NHEt]LHRH] (X13-SY[dW]LRP-NHEt) | 1.95 nM |
| CCNC(=O)[C@@H]1CCCN1C(=O)[C@H](CCCNC(=N)N)NC(=O)[C@H](CC(C)C)NC(=O)[C@@H](Cc1cccs1)NC(=O)[C@H](Cc1ccc(O)cc1)NC(=O)[C@H](CO)NC(=O)CCc1c[nH]c2ccccc12 [Compound 80, (4-9)[N-(3-(3-Indole)propionyl) -Ser^4 -D-Thia^6 -Pro^9 NHEt]LHRH] ({Propanoyl(3-indol-3-yl)}-SY[d2Thi]LRP-NHEt) | 50.1 nM |
| CCNC(=O)[C@@H]1CCCN1C(=O)[C@H](CCCNC(=N)N)NC(=O)[C@H](CC(C)C)NC(=O)[C@@H](Cc1c[nH]c2ccccc12)NC(=O)[C@H](Cc1ccc(O)cc1)N(C)C(=O)[C@H](CO)NC(=O)CC12CC3CC(CC(C3)C1)C2 [Compound 81, N-[(1-Adamantyl)acetyl]-Ser-N-Me-Tyr-D-Trp-Leu-Arg-Pro -NHEt] ({Acetyl(1-adamantyl)}-S[NMeY][dW]LRP-NHEt) | 0.589 nM |
| CCNC(=O)[C@@H]1CCCN1C(=O)[C@H](CCCNC(=N)N)NC(=O)[C@H](CC(C)C)NC(=O)[C@@H](Cc1c[nH]c2ccccc12)NC(=O)[C@H](Cc1ccc(O)cc1)NC(=O)[C@H](CO)NC(=O)[C@H](Cc1ccc2ccccc2c1)NC(C)=O [Compound 84, (3-9)[N-Ac-2-Nal^3 -D-Trp^6 -Pro^9 NHEt]LHRH] (Ac-[2Nal]SY[dW]LRP-NHEt) | 1.41 nM |
| CCNC(=O)[C@@H]1CCCN1C(=O)[C@H](CCCN=C(N)N)NC(=O)[C@H](CC(C)C)NC(=O)[C@@H](Cc1c[nH]c2ccccc12)NC(=O)[C@H](Cc1ccc(O)cc1)NC(=O)[C@H](CO)NC(=O)[C@@H](Cc1c[nH]c2ccccc12)NC(=O)CCc1ccc(Cl)cc1 [Compound 85, (3 9)[N-(3-(4-Chlorophenyl)propionyl)-D-Trp^3,6 -Pro^9 NHEt]LHRH] ({Propanoyl(3-(4-Cl-Ph))}-[dW]SY[dW]LRP-NHEt) | 0.0741 nM |
| CCNC(=O)[C@@H]1CCCN1C(=O)[C@H](CCCN=C(N)N)NC(=O)[C@H](CC(C)C)NC(=O)[C@@H](Cc1c[nH]c2ccccc12)NC(=O)[C@H](Cc1ccc(O)cc1)NC(=O)[C@H](CO)NC(=O)[C@@H](Cc1ccc(O)cc1)NC(=O)CCc1ccc(Cl)cc1 [Compound 86, (3-9)[N-(3-(4-Chlorophenyl)propionyl)-D -Tyr^3 -D-Trp^6 -Pro^9 NHEt]LHRH] ({Propanoyl(3-(4-Cl-Ph))}-[dY]SY[dW]LRP-NHEt) | 0.0174 nM |
| CCNC(=O)[C@@H]1CCCN1C(=O)[C@H](CCCN=C(N)N)NC(=O)[C@H](CC(C)C)NC(=O)[C@@H](Cc1c[nH]c2ccccc12)NC(=O)[C@H](Cc1ccc(O)cc1)NC(=O)[C@H](CO)NC(=O)[C@H](Cc1ccc(O)cc1)NC(=O)CCc1ccc(Cl)cc1 [Compound 87, (3-9)[N-(3-(4-Chlorophenyl)propionyl) -Tyr^3 -D-Trp^6 -Pro^9 NHEt]LHRH] ({Propanoyl(3-(4-Cl-Ph))}-YSY[dW]LRP-NHEt) | 0.129 nM |
| CCNC(=O)[C@@H]1CCCN1C(=O)[C@H](CCCNC(=N)N)NC(=O)[C@H](CC(C)C)NC(=O)[C@@H](Cc1c[nH]c2ccccc12)NC(=O)[C@H](Cc1ccc(O)cc1)NC(=O)[C@H](CO)NC(=O)[C@H](Cc1c[nH]c2ccccc12)NC(=O)CCc1ccccc1F [Compound 88, (3-9)[N-(3-(2-Fluorophenyl)propionyl) -Trp^3 -D-Trp^6 -Pro^9 NHEt]LHRH] (X6-WSY[dW]LRP-NHEt) | 0.0575 nM |

Source: patent US5140009A (Tap Pharmaceuticals, Inc., priority 1990, dated 1992)
